Values quoted from earlier work as cited in patent US12171873B2, “Devices and methods for delivery of substances to animals” (Ruminant Biotech Corp Limited, priority 2020, dated 2024).

Assays:
[1] = in vivo
[2] = slaughtered steers, after 48 hour with holding period

## BrC(Br)Br [Bromoform, bromoform]
[1]
  level in milk: no significant increase
[2]
  residues in meat and tissue: no residues
